Experimental data reported in patent US12048703B2, “Use of small molecule FAK activators to promote mucosal healing” (Regents of the University of Minnesota, priority 2018, dated 2024).
Entries after “also recorded” stand apart in the source; their conditions may differ.

What was measured:
Caco-2 monolayers = assay: Closure of circular wounds in Caco-2 monolayers on collagen I; assay type: cell-based, human; settings: for wound closure rate: 100 μM, Caco-2 on Collagen-I; for monolayer wound closure: Caco-2 on collagen I; for stimulation of wound closure under FAK blockade: with FAK inhibitor PF-573328 (10 uM); for Caco-2 monolayer wound closure: concentration not given
FAK = target: T1, FAK (Homo sapiens, UniProt Q05397); assay: FAK activation (FAK-Tyr-397 phosphorylation) by western blotting in Caco-2 cells in suspension; assay type: cell-based; settings: for basal FAK-Tyr-397 phosphorylation: ambient pressure, varying concentrations; for FAK activation (FAK-Tyr-397 phosphorylation): Caco-2 cells; for FAK phosphorylation: 100 pm-1 nM
T1 construct: endogenous in cells; host or cells: Caco-2
T1 sequence (Q05397 whole entry): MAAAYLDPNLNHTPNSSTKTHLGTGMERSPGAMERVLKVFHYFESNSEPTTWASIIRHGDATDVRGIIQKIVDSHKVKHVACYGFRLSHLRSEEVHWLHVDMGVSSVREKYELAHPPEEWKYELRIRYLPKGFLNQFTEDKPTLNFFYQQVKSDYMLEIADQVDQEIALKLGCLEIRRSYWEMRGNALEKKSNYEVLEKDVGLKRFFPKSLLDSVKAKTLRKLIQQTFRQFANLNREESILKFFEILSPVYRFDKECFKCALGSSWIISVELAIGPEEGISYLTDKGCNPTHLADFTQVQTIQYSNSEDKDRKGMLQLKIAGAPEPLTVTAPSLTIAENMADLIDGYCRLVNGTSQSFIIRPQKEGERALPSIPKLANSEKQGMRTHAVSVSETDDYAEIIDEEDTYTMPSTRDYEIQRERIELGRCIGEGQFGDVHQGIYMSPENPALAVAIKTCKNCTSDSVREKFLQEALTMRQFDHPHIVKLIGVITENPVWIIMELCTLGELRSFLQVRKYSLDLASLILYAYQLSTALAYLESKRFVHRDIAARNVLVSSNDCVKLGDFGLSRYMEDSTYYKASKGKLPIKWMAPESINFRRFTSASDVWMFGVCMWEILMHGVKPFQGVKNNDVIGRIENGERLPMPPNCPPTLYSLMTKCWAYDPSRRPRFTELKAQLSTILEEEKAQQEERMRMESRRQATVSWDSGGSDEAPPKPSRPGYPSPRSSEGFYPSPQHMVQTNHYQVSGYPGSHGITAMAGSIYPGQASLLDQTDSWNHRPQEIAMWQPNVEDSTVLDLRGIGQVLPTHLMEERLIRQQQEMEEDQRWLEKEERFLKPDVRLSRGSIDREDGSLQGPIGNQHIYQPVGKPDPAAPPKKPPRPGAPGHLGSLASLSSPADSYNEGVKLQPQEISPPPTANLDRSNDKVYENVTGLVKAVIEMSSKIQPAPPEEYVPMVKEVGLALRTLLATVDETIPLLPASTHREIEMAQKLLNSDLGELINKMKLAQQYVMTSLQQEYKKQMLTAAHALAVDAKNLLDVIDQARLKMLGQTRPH
From the text: FAK-Y397 western blotting: For studies of FAK activation, cells were maintained at ambient or increased pressure in bacteriologic plastic dishes pacificated with heat-inactivated bovine serum albumin to prevent adhesion and avoid adhesion-associated background FAK activation. Cells were lysed in lysis buffer, resolved by 10% SDS-PAGE, transferred to nitrocellulose and blotted with antibody to Tyr-397-phosphorylated FAK (Rabbit monoclonal antibody, ab81298, Abcam, USA) and anti-rabbit 680 (LI-COR, USA), before quantitation using Kodak Scientific Imaging Systems 1D, V.3.5.4 within the linear range of exposure (Oncotarget 2017). Total FAK (Primary antibody: Anti-FAK, clone 4.47 Merck, Germany and secondary antibody: anti-mouse 800, LI-COR, USA) served as a protein loading control.

ileal ulcer = assay: Serosal acetic acid ileal ulcer healing in mice; assay type: in vivo; settings: vs DMSO vehicle, listed as D3
Protocol: An in vivo study was conducted utilizing C57BL6 Male/Female>8-week-old mice. During laparotomy under anesthesia, a filter paper soaked with 75% Acetic Acid was applied to ileal serosa for 15 seconds, a technique that produces reproducible mucosal ulcers at day 4 without opening the bowel. Flanigan T L et al., Am J Surg. 2008 November; 196(5): 683-689. doi:10.1016/j.amjsurg.2008.07.016.
At 1 day after ulcerogenesis, an intraperitoneal (IP) administration of Q6H-DMSO (2.4 ul+97.6 ul saline) was performed in a control sample, along with an IP injection of Q6H—Compound 3 (10 ug/ul) (2.4 ul+97.6 ul saline) in a test sample.
At 4 days after ulcerogenesis (day 3 after starting administration), the ulcer area was measured in each. The observed ulcer area and corresponding wound closure rate in vivo further evidences the effect of Compound 3.
(§1) (A) The effects of dosing of compound D3 on murine intestinal ulcer healing was investigated. Brief serosal application of a filter paper disk soaked in dilute acetic acid was used to create well demarcated reproducible mucosal small bowel ulcerations without opening the bowel (47-49). In one study such murine ulcers were created, allowed 24 hours for recovery and ulcer formation, and then compound D3 was administered at 900 ug/kg Q6H for three days before sacrifice. […] Males and females responded similarly.

SHP2 = target: T2, SHP2 (Homo sapiens, UniProt Q06124); assay: SHP2 dephosphorylation of a synthetic substrate; assay type: biochemical; settings: for SHP2 dephosphorylation of a synthetic substrate: 100 nM, vs. positive control reaction
T2 sequence (Q06124 1-593): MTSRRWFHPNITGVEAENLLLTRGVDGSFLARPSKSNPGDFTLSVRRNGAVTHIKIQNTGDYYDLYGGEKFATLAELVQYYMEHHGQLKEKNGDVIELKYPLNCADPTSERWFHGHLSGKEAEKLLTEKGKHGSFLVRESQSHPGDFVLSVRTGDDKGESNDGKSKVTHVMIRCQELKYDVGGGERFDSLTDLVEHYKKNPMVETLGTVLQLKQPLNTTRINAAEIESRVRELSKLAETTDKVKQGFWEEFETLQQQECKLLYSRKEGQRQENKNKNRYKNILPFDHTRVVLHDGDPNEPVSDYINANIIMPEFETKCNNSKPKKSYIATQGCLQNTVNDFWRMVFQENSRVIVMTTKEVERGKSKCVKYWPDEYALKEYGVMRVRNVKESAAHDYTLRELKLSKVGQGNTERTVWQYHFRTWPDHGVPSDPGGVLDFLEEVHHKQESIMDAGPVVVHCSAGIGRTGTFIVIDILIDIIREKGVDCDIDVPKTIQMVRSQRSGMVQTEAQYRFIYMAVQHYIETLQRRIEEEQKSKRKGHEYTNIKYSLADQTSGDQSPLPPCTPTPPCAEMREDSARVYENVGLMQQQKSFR

PTP1B-FAK interaction = target: T3, PTP1B-FAK interaction (Homo sapiens, UniProt Q05397); assay: PTP1B-FAK interaction by FAK immunoprecipitation and Western for PTP1B; assay type: cell-based; settings: 10 nM; co-precipitation; listed as D3
T3 construct: endogenous in cells; host or cells: Caco-2 (inferred)
T3 sequence (Q05397 whole entry): as the sequence (Q05397 whole entry) above

[1] = Body weight in indomethacin ulcer mice; assay type: in vivo; settings: indomethacin model, trend not statistically significant
Protocol: (§2) (B) Indomethacin ulcer healing. 15 mg/kg of indomethacin was administered subcutaneously, and treatment started with vehicle of drug 1 day after injury. At 4 days, ulcer area was calculated after sacrifice by morphometric analysis of photographs of the entire small bowel.

[2] = Toxicity assessment in acetic acid ulcer mice (weight, serum chemistry, histology); assay type: in vivo; settings: acetic acid ulcer model
Protocol: as §1

Pyk2 (also called FAK2) = target: T4, Pyk2 (also called FAK2) (Homo sapiens, UniProt Q14289); assay: Pyk2 activation (selectivity); assay type: cell-based; settings: up to 1000 nm (100× therapeutic threshold); listed as D3
T4 construct: endogenous in cells
T4 sequence (Q14289 whole entry): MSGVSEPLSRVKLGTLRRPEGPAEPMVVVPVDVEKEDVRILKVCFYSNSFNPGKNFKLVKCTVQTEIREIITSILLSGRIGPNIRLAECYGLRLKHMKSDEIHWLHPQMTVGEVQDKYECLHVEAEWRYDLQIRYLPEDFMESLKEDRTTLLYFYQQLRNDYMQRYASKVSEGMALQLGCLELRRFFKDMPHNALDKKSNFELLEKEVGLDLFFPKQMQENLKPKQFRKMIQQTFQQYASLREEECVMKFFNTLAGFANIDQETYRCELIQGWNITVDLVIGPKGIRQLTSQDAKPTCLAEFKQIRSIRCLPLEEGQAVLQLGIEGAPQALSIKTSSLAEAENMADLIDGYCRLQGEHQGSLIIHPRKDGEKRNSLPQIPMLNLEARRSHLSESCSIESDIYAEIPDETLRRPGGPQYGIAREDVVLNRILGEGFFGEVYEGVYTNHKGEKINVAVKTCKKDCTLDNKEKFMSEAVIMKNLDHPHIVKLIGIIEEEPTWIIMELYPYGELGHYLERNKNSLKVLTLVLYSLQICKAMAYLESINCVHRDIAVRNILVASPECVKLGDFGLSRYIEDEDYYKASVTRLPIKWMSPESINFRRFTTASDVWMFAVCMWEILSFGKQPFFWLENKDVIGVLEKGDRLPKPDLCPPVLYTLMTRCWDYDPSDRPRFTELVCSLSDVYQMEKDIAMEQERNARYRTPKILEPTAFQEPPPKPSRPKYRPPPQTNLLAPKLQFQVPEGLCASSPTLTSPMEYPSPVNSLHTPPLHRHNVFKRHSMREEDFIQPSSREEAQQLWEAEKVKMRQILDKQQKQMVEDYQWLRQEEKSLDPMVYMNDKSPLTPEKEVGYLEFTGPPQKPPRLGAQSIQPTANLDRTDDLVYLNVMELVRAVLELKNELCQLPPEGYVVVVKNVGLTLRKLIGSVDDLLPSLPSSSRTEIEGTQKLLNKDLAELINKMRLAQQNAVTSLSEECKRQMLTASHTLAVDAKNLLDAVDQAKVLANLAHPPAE

small bowel ulcer = assay: Indomethacin small bowel ulcer healing in mice; assay type: in vivo; settings: 4 days after indomethacin 15 mg/kg subQ, listed as D3
Protocol: as §2

Src = target: T5, Src (Homo sapiens, UniProt P12931); assay: Src activation (selectivity); assay type: cell-based; settings: up to 1000 nm (100× therapeutic threshold); listed as D3
T5 construct: endogenous in cells
T5 sequence (P12931 whole entry): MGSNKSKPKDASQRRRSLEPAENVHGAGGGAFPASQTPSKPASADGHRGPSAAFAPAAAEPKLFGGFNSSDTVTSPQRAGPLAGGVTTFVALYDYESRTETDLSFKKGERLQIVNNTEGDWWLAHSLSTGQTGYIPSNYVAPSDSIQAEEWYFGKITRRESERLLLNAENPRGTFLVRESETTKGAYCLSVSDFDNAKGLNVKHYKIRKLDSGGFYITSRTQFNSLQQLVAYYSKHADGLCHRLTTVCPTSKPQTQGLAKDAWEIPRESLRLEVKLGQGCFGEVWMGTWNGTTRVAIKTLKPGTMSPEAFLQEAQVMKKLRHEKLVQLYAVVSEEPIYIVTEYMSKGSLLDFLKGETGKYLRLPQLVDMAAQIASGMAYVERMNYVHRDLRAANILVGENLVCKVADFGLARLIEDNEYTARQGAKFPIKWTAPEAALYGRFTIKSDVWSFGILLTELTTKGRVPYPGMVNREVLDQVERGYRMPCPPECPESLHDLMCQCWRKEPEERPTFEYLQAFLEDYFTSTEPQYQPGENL

Caco-2 cells = assay: Caco-2 proliferation; assay type: cell-based, human

Cc1ccccc1[C@@H]1CCCN1C(=O)C[C@H](NC(N)=O)c1cccs1 [Compound 2, [(1S)-3-[(2S)-2-(2-methylphenyl)pyrrolidin-1-yl]-3-oxo-1-thiophen-2-ylpropyl]urea]
wound closure rate (Caco-2 monolayers): Increased wound closure rates | FAK activation (FAK; 1 nM): demonstrated FAK activation | FAK activation (FAK; 10 and 100 nM): modest FAK activation | basal FAK-Tyr-397 phosphorylation (FAK): increase basal FAK-Tyr-397 phosphorylation | FAK activation (FAK; concentration not given): activated FAK

COc1ccc(C2CCCN2C(=O)Nc2cc(C(F)(F)F)ccc2N2CCOCC2)cc1 (stereo not drawn) [Compound 3, 2-(4-methoxyphenyl)-N-[2-(morpholin-4-yl)-5-(trifluoromethyl)phenyl]pyrrolidine-1-carboxamide]
% wound closure between day 1 and day 4 (ileal ulcer; 900 ug/kg IP every 6 hours): markedly higher; also recorded: stimulates ulcer healing | ileal ulcer area (ileal ulcer; day 4, 900 ug/kg IP every 6 hours for 3 days): substantially smaller ulcers; also recorded: reduces ileal ulcer area; also recorded: ulcers appear smaller | SHP2 dephosphorylation of a synthetic substrate (SHP2): neither D3 nor D4 (100 nM) blocks SHP2 dephosphorylation | SHP2 activity in vitro (SHP2; concentration not given, listed as D3): does not activate SHP2; also recorded: does not alter SHP2 activity | PTP1B-FAK interaction (PTP1B-FAK interaction): does not change FAK-PTPB association; also recorded: does not inhibit PTP1B-FAK interaction | body weight [1]: lost less weight | ALT ([2]; remained within the normal range): slight elevation of ALT | Histological evaluation of kidneys or livers ([2]; vs vehicle): no differences | Serum creatinine ([2]; vs vehicle): not different | postoperative body weight ([2]; vs vehicle): did not display further weight loss | wound closure when proliferation is blocked (Caco-2 monolayers; 10 nM, 4 mM OH-urea, listed as D3): stimulates wound closure even when proliferation is blocked; also recorded: accelerates closure of circular wounds | monolayer wound closure (Caco-2 monolayers; 10 nM): Increased wound closure rates | monolayer wound closure (Caco-2 monolayers; 10 nM, listed as D3): accelerate the closure of circular wounds | wound closure rate (Caco-2 monolayers): Increased wound closure rates | stimulation of wound closure under FAK blockade (Caco-2 monolayers): prevents the stimulation of wound healing by Compound 3 | stimulation of wound closure under FAK blockade (Caco-2 monolayers; listed as D3): prevented D3 stimulation of monolayer wound closure; also recorded: prevents D3 stimulation of wound closure | FAK activation (FAK; 10 pM to 1 nM): activation | FAK activation (FAK; 1 nM): demonstrated FAK activation | FAK activation (FAK-Tyr-397 phosphorylation) (FAK; 10 nM, listed as D3): activating FAK; also recorded: activate FAK | FAK-Y-397 phosphorylation under PTP PEST inhibition (FAK; 10 nM, PTP LYP inhibitor 540217 (50 uM), listed as D3): does not prevent D3 induction of FAK-Y-397; also recorded: stimulates Caco-2 FAK-Y-397 phosphorylation independently of PTP PEST inhibition | FAK activation in presence of genistein (FAK; 100 ug/ml genistein, human Caco-2 cells, listed as D3): does not block D3 induction of FAK phosphorylation; also recorded: does not block D3 activation of FAK | FAK activation, dose dependence (FAK; 10-1000 nM): dose dependently activates FAK | specificity vs. Pyk2 (FAK; FAK activation at 10 nM vs. Pyk2): at least 100 × | basal FAK-Tyr-397 phosphorylation (FAK): increase basal FAK-Tyr-397 phosphorylation | FAK activation (FAK; concentration not given): especially potent | FAK autophosphorylation in presence of FAK inhibitor PF573228 (FAK; with PF573228): does not prevent Compound 3 from increasing FAK autophosphorylation | Pyk2 activation (Pyk2 (also called FAK2)): does not activate Pyk2 or Src; also recorded: does not affect the kinase Pyk2 | total small bowel ulcer area (small bowel ulcer): substantial and statistically significant reduction in ulcer area; also recorded: markedly decreases total small bowel ulcer area | Src activation (Src): does not activate Pyk2 or Src; also recorded: does not affect | Caco-2 cell proliferation (Caco-2 cells): Neither Compound 1 nor Compound 3 stimulated Caco-2 cell proliferation | Caco-2 proliferation (cell number) (Caco-2 cells; 48 hours, listed as D3): cell number did not increase; also recorded: does not stimulate Caco-2 proliferation

COc1ccc(C2CCCN2C(=O)CC(NC(N)=O)c2ccccc2Cl)cc1OC (stereo not drawn) [Compound 4, 1-(2-chlorophenyl)-3-[2-(3,4-dimethoxyphenyl)pyrrolidin-1-yl]-3-oxopropylurea]
SHP2 dephosphorylation of a synthetic substrate (SHP2): neither D3 nor D4 (100 nM) blocks SHP2 dephosphorylation | monolayer wound closure (Caco-2 monolayers; 10 nM): Increased wound closure rates; also recorded: can promote Caco-2 monolayer wound healing | monolayer wound closure (Caco-2 monolayers; 10 nM, listed as D4): accelerate the closure of circular wounds | FAK activation (FAK; 1 nM): no change was observed | FAK activation (FAK-Tyr-397 phosphorylation) (FAK; 10 nM): can activate FAK | FAK activation (FAK-Tyr-397 phosphorylation) (FAK; 10 nM, listed as D4): activate FAK | basal FAK-Tyr-397 phosphorylation (FAK): increase basal FAK-Tyr-397 phosphorylation | FAK activation (FAK; concentration not given): especially potent

O=C(Nc1cc(C(F)(F)F)ccc1N1CCOCC1)N1CCCC1c1ccncc1 (stereo not drawn) [Compound M3]
Caco-2 monolayer wound closure (Caco-2 monolayers): promote Caco-2 monolayer wound closure | FAK activation (FAK-Tyr-397 phosphorylation) (FAK; 10 nM): proved active; also recorded: activate FAK Y-397 phosphorylation | FAK phosphorylation (FAK): activate FAK phosphorylation

COc1ccc(C(CNC(=O)Nc2cc(C(F)(F)F)ccc2N2CCOCC2)N(C)C)cc1 (stereo not drawn) [Compound M6]
Caco-2 monolayer wound closure (Caco-2 monolayers): promote Caco-2 monolayer wound closure | FAK activation (FAK-Tyr-397 phosphorylation) (FAK; 10 nM): proved active; also recorded: activate FAK Y-397 phosphorylation | FAK phosphorylation (FAK): activate FAK phosphorylation

O=C(Nc1cc(C(F)(F)F)ccc1N1CCOCC1)N1CCCC1C1CCCCC1 (stereo not drawn) [Compound M11]
Caco-2 monolayer wound closure (Caco-2 monolayers): promote Caco-2 monolayer wound closure | FAK activation (FAK-Tyr-397 phosphorylation) (FAK; 10 nM): proved active; also recorded: activate FAK Y-397 phosphorylation | FAK phosphorylation (FAK): activate FAK phosphorylation

O=C(Nc1cc(C(F)(F)F)ccc1N1CCOCC1)N1CCCC1c1ccccc1 (stereo not drawn) [Compound M12]
monolayer wound closure (Caco-2 monolayers; 10 nM): stimulates monolayer wound closure | FAK activation (FAK-Tyr-397 phosphorylation) (FAK; 10 nM): proved active; also recorded: activate FAK Y-397 phosphorylation

CS(=O)(=O)c1cccc(CNc2nc(Nc3ccc4c(c3)CCC(=O)N4)ncc2C(F)(F)F)c1 [PF-573228, reference compound]
basal rates of wound healing in vitro (Caco-2 monolayers): reduces basal rates of wound healing in vitro | basal FAK autophosphorylation (FAK): inhibits basal FAK autophosphorylation
